Measured values: patent USRE46873E1, “Multi-targeted RNAi therapeutics for scarless wound healing of skin” (Sirnaomics, Inc., priority 2007, dated 2018)
Bridges are numbered along the chain shown (N, C = ends). Roman numbers before positions name the chains, in order. Where no end group is shown, it is not given here.

Columns and labels:
TGF-β1 mRNA in PC3 cells = assay: siRNA transfection of PC3 cells, RT-PCR of TGF-beta1; type: cell-based; settings: human PC3 cells
Procedure: (§1) • 4. Human prostate carcinoma cell-PC3 was used for detection of the gene expression knockdown. A series of standard transfection experiments were carried out using the protocol provided by the vendor (Invitrogen) with the siRNA duplexes identified in step 2 accordingly. • 5. Total RNA samples were isolated and subjected to RT-PCR analysis using the respective PCR primers identified in step 3 above.
(§2) Among ten in silico designed 25 mer siRNA sequences, we first pick three for testing. Before testing those siRNA oligos (synthesized by Qiagen) in the corresponding cells, such as human PC-3 cell (a bone metastasis of a […] prostatic adenocarcinoma), we first use RT-PCR to survey the presence of the target gene expression in the total RNA samples (FIG. 14). […] We further surveyed the expression of these three genes in the mouse C166 cell. […] Therefore, we can transfect the three selected siRNA oligos targeting a particular gene into the corresponding cell and then evaluate their gene silencing potential, followed by total RNA isolation and RT-PCR analysis. Three doses were used for each transfection on the 6-well plate: 0.5 ug, 1 ug and 2 ug, with Lipo2000 following the vendor's direction. […] The RT-PCR products were also subjected to the gel electrophoreses and quantification. […]

Cox-2 mRNA in PC3 cells = assay: siRNA transfection of PC3 cells, RT-PCR of Cox-2; type: cell-based; settings: human PC3 cells
Procedure: as §1, §2

lung, liver, and kidney = assay: In vivo toxicity of HK peptides after intravenous administration; settings: mice, 1000 μg, 24 h after injection; preliminary studies
Procedure: H2K4b, had the strongest antifungal effect reducing growth of C. albicans to nearly 40% at 37.5 μg/ml (3.4 μM) and 85% at 50 μg/ml (4.5 μM). […] Relative to in vitro toxicity, the in vivo toxicity differences among these peptides are more striking. […] Of the three organs examined, the kidney appears to be the most sensitive to these peptides. Relative to H2K4b, a decrease in cationic charge in the terminal branches of H3K4b and H3K(G)K4b may, in part, account for their reduced toxicity in vitro and in vivo; the reduction in charge may decrease their interaction with negatively charged cell membranes. With eight additional glycines, H3K(G)4b polymer has a reduced charge per total number of amino acids relative to H3K4b. Because there are five lysines in each terminal arm of H3K(G)4b and H3K4b, however, we doubt that minimal charge differences readily explain the reduced toxicity of H3K(G)4b relative to H3K4b. An alternative possibility is that glycines may disrupt alpha helices in the terminal branches, thereby enhancing the flexibility of the polymer and allowing enzymatic degradation. Several secondary structure programs for peptides predict a marked difference in the alpha helical content between a glycine containing peptide, H3K(G)4b, and the non-glycine containing peptides, H2K4b and H3K4b.

Hoxb13 mRNA in PC3 cells = assay: siRNA transfection of PC3 cells, RT-PCR of Hoxb13; type: cell-based; settings: human PC3 cells
Procedure: as §1, §2

For “hmTF-2: 25-mer siRNA duplex targeting human and mouse TGF-β1; sense 5′-CCCAAGGGCUACCAUGCCAACUUCU-3′ (SEQ ID NO: 11) (antisense AGAAGUUGGCAUGGUAGCCCUUGGG; listed as RNA, further chemistry not given here)”, the “TGF-β1 gene expression / silencing activity (RT-PCR)” value (TGF-β1 mRNA in PC3 cells) was “potent”.
With “hmCX-1: 25-mer siRNA duplex targeting human and mouse COX-2; sense 5′-GGUCUGGUGCCUGGUCUGAUGAUGU-3′ (SEQ ID NO: 9) (antisense ACAUCAUCAGACCAGGCACCAGACC; listed as RNA, further chemistry not given here)” the “Cox-2 gene expression / silencing activity (RT-PCR)” value (Cox-2 mRNA in PC3 cells) was “potent”.
In the case of “I: KHHHKHHHKHHHKHHHKKKK-NH2 / II: KHHHKHHHKHHHKHHHK / III: KHHHKHHHKHHHKHHHK / IV: KHHHKHHHKHHHKHHHK (amide I:18-IV:C, I:19-III:C, I:20-II:C) [H3K4b]”, the organ toxicity (lung, liver, and kidney) is reported as “minimally toxic to the kidney”.
In the case of “hmHX-1: 25-mer siRNA duplex targeting human and mouse HoxB13; sense 5′-GGUGGCUGGAACAGCCAGAUGUGUU-3′ (SEQ ID NO: 7) (antisense AACACAUCUGGCUGUUCCAGCCACC; listed as RNA, further chemistry not given here)”, the “Hoxb13 gene expression / silencing activity (RT-PCR)” value (Hoxb13 mRNA in PC3 cells) is reported as “potent”.
